Where two headings read alike, the source gives them in different places.
Assays:
[1] = test system: patient head and neck tumors; experiment: Paclitaxel efflux from tumor histocultures
Protocol: (§1) The specimens were washed with culture medium for three times and dissected into about 1 mm^3 fragments under sterile conditions. The culture medium consisted of a 1:1 mixture of MEM/DMEM for patient tumors, MEM for FaDu xenografts, and RPMI1640 for PC3 xenografts, supplemented with 9% heat-inactivated FBS, 2 mM glutamine, 0.1 mM non-essential amino acids (only for MEM/DMEM), 90:g/ml gentamicin and 90:g/ml cefotaxime sodium. Five histoculture fragments were placed on a 1 cm^2 piece of presoaked collagen gel and incubated with 4 ml culture medium in 6-well plates. After 2 to 4 days, tumor histocultures were used to study the kinetics of drug penetration.
(§2) At predetermined times, 100 μl of medium was taken from each well and the histocultures were removed from the plates. The histocultures were blot-dried on a filter paper and their weights were measured. One hundred 1 of medium or tumor samples were mixed with 0.5 ml of Solvable tissue/gel solubilizer, incubated at 50° C. in an oven overnight, and analyzed for total radioactivity using liquid scintillation counting. […] Drug concentration in tissue was calculated as (drug amount) divided by (tissue weight) and was expressed in molar terms.
(§3) The study design of experiments using patient tumors was dictated by the size of the specimens. On some occasions, specimens from an individual patient were only sufficient to study drug uptake and efflux at one or more but not all drug concentrations. A total of 7 head and neck tumors and 3 ovarian tumors were used. For the FaDu xenograft tumor, specimens from individual animals were sufficiently large that each tumor was used for studying uptake and efflux at all four drug concentrations.
After replacing the drug-containing medium with drug-free medium, the drug concentration remaining in histocultures at 24 and 72 hours post-treatment were analyzed to determine the time to reach 50% of the pseudo steady state level (T1/2,efflux). The statistical significance of the differences among patient (head and neck and ovarian, n=6) and FaDu (n=3) tumors, at equal initial medium concentrations, were analyzed using a unpaired t-test.

[2] = test system: Pgp-positive patient tumors; experiment: Paclitaxel accumulation by Pgp status; format: in vitro ADME, human; conditions: 12,000 nM
Protocol: The expression of Pgp was measured by immunohistochemical methods, using procedures described previously (Toth K et al. (1994) Am J Pathol 144:227–236). Briefly, tissue sections were de-waxed and rehydrated sequentially in xylene, ethanol and water. Tissue sections were boiled in a 0.1 M citrate buffer, pH 6.0, in a microwave oven, then cooled and washed in phosphate-buffered saline (PBS). The tissue sections were incubated with Dako blocking solution for 10 min and subsequently with the following antibody solutions for 2 hr: a mouse anti-human Pgp antibody (JSB-1, 1:200 dilution) and a rabbit antihuman Pgp polyclonal antibody (ab-1, 1:100 dilution). […] The incubation was carried out in a humidified chamber at room temperature. The antibodies were diluted in PBS containing 5 mg/ml bovine serum albumin. For negative controls, we used mouse IgG as the primary antibody. […] After washing with PBS, the tissue sections were covered with the linker solution, and then with peroxidase-conjugated streptavidin solution. After washing twice with PBS, tissue sections were incubated for 5 to 7 minutes with diaminobenzidine and counterstained with hematoxylin.
The statistical significance of the differences between groups was analyzed by the two-tailed unpaired Student's t-test.

[3] = test system: FaDu xenograft tumor histocultures; experiment: [3H]paclitaxel penetration by autoradiography; format: in vitro ADME, human; conditions: 120 nM
Protocol: The autoradiographic method was as described previously (Lesser G J et al. (1995) Cancer Chemother Pharmacol 37:173–178). […] Tissue samples were mounted on cryostat chucks with embedding matrix (O.C.T. Compound, Miles Inc., Ellchart, Ind.) and cut into 10 μm thick sections in a cryostat at −20° C. […] The slides containing the tissue sections were placed against tritium-sensitive film (Ultrofilm) in an X-ray cassette and exposed for one to two weeks at room temperature. The films were developed for 3–5 minutes at room temperature (D-19 Developer), placed in a stop bath for 30 seconds, immersed in fixer for 3 minutes and exposed to running room temperature water for 15 minutes. The films were then rinsed in Photo-flo 200 and allowed to air-dry. Separately, the tissue section slides were stained with hematoxylin and eosin.
The threshold for the autoradiographic image was adjusted to minimize the background signal.

[4] = test system: patient and xenograft tumors; experiment: Paclitaxel efflux from tumor histocultures, all three tumor types
Protocol: as §1, §2
The study design of experiments using patient tumors was dictated by the size of the specimens. […]

[5] = test system: patient head and neck tumors; experiment: Paclitaxel uptake in tumor histocultures
Protocol: as §1
This study was performed using head and neck tumors from human patients and the human pharynx FaDu xenograft tumors maintained in athymic mice.
as §2, §3
The statistical significance of the differences among patient (head and neck and ovarian, n=6) and FaDu (n=3) tumors, at equal initial medium concentrations, were analyzed by the two-tailed unpaired Student's t-test.

[6] = test system: FaDu tumor histocultures; conditions: for time at which even distribution in tumor was attained: with pretreatment
Excerpt: The histocultures were transferred to a collagen gel presoaked with drug-containing medium for at least 8 hr. The latter was to ascertain that the drug concentration in the medium inside the collagen gel was at equilibrium with the surrounding medium, in order to eliminate the delay in drug transport from medium through the collage gel. Drug treatment was terminated by transferring histocultures to a collagen gel presoaked with drug-free medium. Histocultures were transferred using a pair of hooked forceps and care was exercised to avoid squeezing or pinching.
The total drug concentration in tumor histocultures was measured as described in Example 1. […] Thirty to 35 tumor histocultures were used for each time point.
Two studies were performed.
One schedule used 50% of the total C×T to induce apoptosis, whereas the other schedule used continuous treatment. […] The fraction of apoptotic cells and cell density were determined by counting the number of total and apoptotic tumor cells in 400× microscopic fields (3 fields per tumor).

[7] = test system: patient ovarian tumors; experiment: Paclitaxel efflux from tumor histocultures; format: in vitro ADME, human
[8] = test system: FaDu xenograft tumor histocultures; experiment: Apoptotic cell fraction in paclitaxel-treated histocultures (Example 1); format: cell-based, human
Protocol: The fractions of stromal tissue and tumor cells in each histoculture were measured using image analysis. Briefly, stromal and tumor cells of a 100× magnification field were outlined with the computer mouse. The sizes of each of these regions were determined via image analysis by counting the number of pixels in the region. […] Apoptotic cells were determined based on morphological changes in tumor cells such as chromatin condensation and margination, disappearance of nucleoli, formation of membrane blebs, apoptotic bodies and/or cell shrinkage (Kerr J F R et al. (1994) Cancer 73:2013). […] For each tumor piece, 50 to 100 images were processed, and the fractions of the tumor represented by tumor cells, stromal tissue, and interstitial space were calculated.

[9] = initial Cmedium 120 nM for 24 hr, at 24 hr post-treatment
[10] = initial Cmedium 120 nM for 24 hr, at 72 hr post-treatment
[11] = initial Cmedium 1,200 nM for 24 hr
[12] = initial Cmedium 1,200 nM for 24 hr, at 24 hr post-treatment
[13] = initial Cmedium 1,200 nM for 24 hr, at 72 hr post-treatment

For `CC(=O)O[C@H]1C(=O)[C@@]2(C)[C@H]([C@H](OC(=O)c3ccccc3)[C@]3(O)C[C@H](OC(=O)[C@H](O)[C@@H](NC(=O)c4ccccc4)c4ccccc4)C(C)=C1C3(C)C)[C@]1(OC(C)=O)CO[C@@H]1C[C@@H]2O` [paclitaxel], the “T1/2,efflux” value ([1]; initial Cmedium 120 nM for 24 hr) was 7.45 ± 3.02 h, the “% remaining in tumor” value [1, 9] was 54.8 ± 3.1% and the Cmedium [1, 9] was 1.13 ± 0.17 nM. The Ctumor [1, 9] was 1.70 ± :M, the “% remaining in tumor” value [1, 10] was 43.3 ± 16.3% and the Cmedium [1, 10] was 1.32 ± 0.14 nM. The Ctumor [1, 10] was 1.19 ± 0.50 :M, the “T1/2,efflux” value [1, 11] was 3.33 ± 2.62 h and the “% remaining in tumor” value [1, 12] was 18.7 ± 6.2%. The Cmedium [1, 12] was 7.69 ± 2.55 nM, the Ctumor [1, 12] was 4.38 ± :M and the “% remaining in tumor” value [1, 13] was 16.0 ± 5.3%. For the same molecule, the Cmedium [1, 13] was 10.9 ± 1.1 nM, the Ctumor [1, 13] was 4.17 ± 2.77 :M and the “lower accumulation in Pgp-positive vs Pgp-negative patient tumors (average difference)” value [2] was < 25%. The cell layers penetrated ([3]; during the first 24 hours) was 15 cell layers, the cell layers penetrated ([3]; during the second 24 hours) was > 80 cell layers and the “time at which drug concentration declined to pseudo steady state level” value [4] was 48 h. For the same molecule, the Mass balance ([5]; initial Cmedium 12 nM) was 91.2 ± 3.5%, the “Steady state Cmedium” value ([5]; initial Cmedium 12 nM) was 10.9 ± 1.0 nM and the Mass balance ([5]; initial Cmedium 120 nM) was 83.8 ± 7.6%. For the same molecule, the “Steady state Cmedium” value ([5]; initial Cmedium 120 nM) was 83.0 ± 0.7 nM, the “Steady state Ctumor” value ([5]; initial Cmedium 120 nM) was 5.77 ± 1.52 :M and the Mass balance ([5]; initial Cmedium 1,200 nM) was 87.5 ± 6.5%. The “Steady state Cmedium” value ([5]; initial Cmedium 1,200 nM) was 925 ± 25 nM, the “Steady state Ctumor” value ([5]; initial Cmedium 1,200 nM) was 22.0 ± 6.2 :M and the Mass balance ([5]; initial Cmedium 12,000 nM) was 91.5 ± 3.5%. The “Steady state Cmedium” value ([5]; initial Cmedium 12,000 nM) was 9,870 ± 59 nM, the “Steady state Ctumor” value ([5]; initial Cmedium 12,000 nM) was 341 ± 125 :M and the “time at which even distribution in tumor was attained” value ([6]; 10 nM) was 72 h. For the same molecule, the Paclitaxel in tumor ([6]; 50 nM x 24 hr, 24 hr after initiation of treatment) was 3.11 ± 0.31 :M, the Paclitaxel in tumor ([6]; 50 nM x 24 hr, 36 hr after initiation of treatment) was 2.01 ± 0.32 :M and the “time at which even distribution in tumor was attained” value ([6]; 50 nM) was 24 h. For the same molecule, the “time of even distribution throughout the tumor” value ([6]; 50 nM, without pretreatment) was ≤ 72 h, the Paclitaxel in tumor ([6]; 600 nM x 1 hr, 23 hr later 50 nM x 12 hr, 24 hr after initiation of treatment) was 2.68 ± 0.31 :M and the Paclitaxel in tumor ([6]; 600 nM x 1 hr, 23 hr later 50 nM x 12 hr, 36 hr after initiation of treatment) was 4.33 ± 0.29 :M. For the same molecule, the paclitaxel penetration ([6]; control group, 50 nM continuously for 24 hr, during the next 12 hr) was “less than 20 cell layers”, the “higher drug accumulation in pretreatment group vs control group” value ([6]; end of drug treatment (36 hr vs 24 hr), equal CxT 1,200 nM·hr) was 40% and the “time of even drug distribution throughout histocultures” value ([6]; pretreatment group, 600 nM 1 hr, 23 hr drug-free, 50 nM 12 hr) was 36 h. The “% remaining in tumor” value [7, 9] was 39.8 ± 14.2%, the Cmedium [7, 9] was 1.19 ± 0.24 nM and the Ctumor [7, 9] was 0.615 ± :M. The “% remaining in tumor” value [7, 10] was 35.7 ± 18.5%, the Cmedium [7, 10] was 1.60 ± 0.26 nM and the Ctumor [7, 10] was 0.520 ± 0.196 :M. For the same molecule, the “T1/2,efflux” value [7, 11] was 5.00 ± 2.93 h, the “% remaining in tumor” value [7, 12] was 25.9 ± 8.3% and the Cmedium [7, 12] was 12.8 ± 3.41 nM. For the same molecule, the Ctumor [7, 12] was 5.13 ± :M, the “% remaining in tumor” value [7, 13] was 19.8 ± 6.6% and the Cmedium [7, 13] was 16.7 ± 2.9 nM. The Ctumor [7, 13] was 4.20 ± 1.79 :M, the “fraction of apoptotic cells” value ([8]; 12 nM, remained relatively constant) was ≥ 7% and the “fraction of apoptotic cells” value ([8]; 120 nM, at 24 hours) was ~30%. The “fraction of apoptotic cells” value ([8]; 120 nM, at 72 hours) was ~50%.

— patent US7217735B1, “Methods and compositions for enhancing delivery of therapeutic agents to tissues” (priority 1999, dated 2007)
